These results are taken from patent US10357483B2, “Methods comprising dosing combinations for reducing undesired humoral immune responses” (Selecta Biosciences, Inc., priority 2013, dated 2019).

In assay [1] the test system is C57BL/6. The experiment in a line: Anti-KRYSTEXXA IgM antibody titers. Conditions: 0.9 mg nanocarriers + 40 μg KRYSTEXXA i.v. days −21 and −14; then 100 μg KRYSTEXXA + 20 μg CpG s.c. day 0 to 28. The assay is classed as in vivo, mice. Here is the method:
All animals received weekly injections from day 0 to day 28 of 100 μg of KRYSTEXXA combined with 20 μg of CpG s.c. in the hind limb (d0, 7, 12, 28).

The test system of assay [2] is huTNFaTg. The experiment in a line: Arthritis scores of limbs in arthritic animals (Example 9). The assay is classed as in vivo, mice. The settings on record: 60 μg HUMIRA s.c. weekly, weeks 5 to 15 of age; 0.87 mg nanocarriers with first 7 injections. Here is the method:
(§1) Transgenic animals overexpressing human tumor necrosis factor alpha (huTNFaTg) develop progressive rheumatoid arthritis over the course of 20 weeks from birth. This process can be prevented by using the fully human anti-human TNFα antibody HUMIRA/adalimumab. However, repetitive administration of the initial therapeutic dose of HUMIRA (60 μg) leads to anti-drug antibody formation (ADA) that neutralizes the therapeutic benefit. Only very high doses can then maintain the therapeutic benefit and surmount the neutralizing immune response. For example, it is thought that about 200 μg is needed to effect maximal inhibition of inflammation in an example of such a mouse model (Binder et al., Arthritis & Rheumatism, Vol. 65 (No. 3), March 2013, pp. 608-617).
(§2) The results in FIG. 9A show the antibody titers in the blood of all animals at day 21.

Assay [3] concerns HuTNFαTg. Put plainly: Anti-HUMIRA antibody titers in arthritic animals (Example 14). The assay is classed as in vivo. The settings on record: HUMIRA s.c. weekly weeks 5-10; 0.87 mg nanoparticles with 60 μg Humira for first 3 injections. On the procedure:
Anti-HUMIRA immune and neutralizing responses in arthritic animals were evaluated. Transgenic animals overexpressing human tumor necrosis factor alpha (huTNFαTg) develop progressive rheumatoid arthritis over the course of 20 weeks from birth. This process can be prevented by using the fully human anti-human TNFα antibody Adalimumab or HUMIRA. However repetitive administration of the initial therapeutic dose of HUMIRA (60 μg) leads to anti-drug antibody formation (ADA) that neutralizes the therapeutic benefit. Higher quantities of Humira (200 μg can be injected to overcome this antagonizing immune response to allow for the therapeutic effect of Humira. Age-matched HuTNFαTg 5 week old female animals were either injected s.c. in the subscapular area with saline (PBS) or 60 μg or 200 μg of HUMIRA weekly (weeks 5-10) or with a mixture of 60 μg of Humira and 0.87 mg of tolerogenic nanoparticles (first dosings) for the first 3 injections (week 5 to 7 of age) followed by 3 weekly injections of HUMIRA alone (same amounts) (second dosings) (weeks 8 to 10 of age). The results in FIG. 11 (left panel) show the antibody titers in the blood of all animals at different time points. […] FIG. 12 illustrates the dosing regimen.

Assay [4] concerns C57BL/6. Put plainly: Anti-HUMIRA antibody titers in blood. The assay is classed as in vivo, mice. The settings on record: day 21; 60 μg HUMIRA s.c. weekly; 0.9 mg nanocarrier admixed on day 0 only. Here is the method:
Control C57BL/6 age-matched (5-6 weeks) females were injected subcutaneously (s.c.) in the front limbs with 60 μg of HUMIRA once a week until day 29 (on d0, 7, 14, 22, 29, across all groups and conditions). […] The results presented in FIG. 3A show the antibody titers in the blood of all animals at day 21. […] At day 29, the animals received another challenge in one hind limb (a further second dosing) while the other hind limb received saline in order to test the local antibody-mediated type I hypersensitivity response. For this, the thickness of the hind limbs were measured with the help of a caliper one hour after the injection.

Assay [5] concerns huTNFaTg. Put plainly: Anti-HUMIRA antibody titers in arthritic animals (Example 9). The assay is classed as in vivo, mice. Conditions: 60 μg HUMIRA s.c. weekly; 0.87 mg nanocarriers with first 7 injections; FIG. 9A day 21. On the procedure:
as §1, §2

For assay [6], the system named is huTNFaTg. The settings on record: such a mouse model; Binder et al. 2013; cited from earlier work.
Assay [7] has as its system HuTNFαTg. Put plainly: Arthritis scores of limbs in arthritic animals (Example 14). The settings on record: HUMIRA s.c. weekly weeks 5-10; nanocarriers with first 3 injections. The assay is classed as in vivo. On the procedure: Age-matched HuTNFαTg 5 week old female animals were either injected s.c. in the subscapular area with saline (PBS) or 60 μg or 200 μg of HUMIRA weekly (weeks 5-10) or with a mixture of 60 μg of Humira and 0.87 mg of tolerogenic nanoparticles (first dosings) for the first 3 injections (week 5 to 7 of age) followed by 3 weekly injections of HUMIRA alone (same amounts) (second dosings) (weeks 8 to 10 of age). The results in FIG. 11 (left panel) show the antibody titers in the blood of all animals at different time points. […] FIG. 12 illustrates the dosing regimen.

In assay [8] the test system is C57BL/6. Put plainly: Anti-OVA and anti-KLH IgG antibody titers (Example 7). The assay is classed as in vivo, mice. The settings on record: day 54; pOVA 2.5 μg i.v. weekly; 0.2 mg nanocarriers admixed days 0, 7, 14. On the procedure:
The control group of C57BL/6 age-matched (5-6 weeks) female were injected i.v. in the tail vein with 2.5 μg of an immunogenic form of particulate Ovalbumin (pOVA) and 2 μg of Keyhole Limpet Hemocyanin (KLH) s.c. in the hind limb once a week for 49 days (d0, 7, 14, 20, 28, 35, 42, 49).

On to pegloticase [KRYSTEXXA], for which, in the assay on C57BL/6 [1], the “anti-KRYSTEXXA IgM antibody titers” value is recorded as “develop an immune response against KRYSTEXXA”.

Consider adalimumab [HUMIRA], for which the “arthritis scores (disease progression)” value in the assay with huTNFaTg [2] and in the assay on HuTNFαTg [7] was “significant blockade of the disease progression” each time. For the same molecule, the anti-HUMIRA antibody titers result with HuTNFαTg [3] is recorded as “robust anti-HUMIRA antibody response”; with C57BL/6 [4], “robust antibody response against HUMIRA”; in the assay with huTNFaTg [5], “robust antibody response”. Also, the “dose needed to effect maximal inhibition of inflammation” value in the assay on huTNFaTg [6] is on record as “about 200 μg”.

B1: pOVA: immunogenic form of particulate Ovalbumin (protein, UniProt P01012 2-386, looked up)
Ovalbumin: GSIGAASMEFCFDVFKELKVHHANENIFYCPIAIMSALAMVYLGAKDSTRTQINKVVRFDKLPGFGDSIEAQCGTSVNVHSSLRDILNQITKPNDVYSFSLASRLYAEERYPILPEYLQCVKELYRGGLEPINFQTAADQARELINSWVESQTNGIIRNVLQPSSVDSQTAMVLVNAIVFKGLWEKAFKDEDTQAMPFRVTEQESKPVQMMYQIGLFRVASMASEKMKILELPFASGTMSMLVLLPDEVSGLEQLESIINFEKLTEWTSSNVMEERKIKVYLPRMKMEEKYNLTSVLMAMGITDVFSSSANLSGISSAESLKISQAVHAAHAEINEAGREVVGSAEAGVDAASVSEEFRADHPFLFCIKHIATNAVLFFGRCVSP
modifications: particulate form
notes: immunogenic form of particulate Ovalbumin
Take B1: the “anti-OVA IgG antibody titers” value in the assay with C57BL/6 [8] was “robust immune response against OVA and KLH”.
